Measured values reported in PMC9228955, “Synthesis, Physicochemical, Labeling and In Vivo Characterization of ^44Sc-Labeled DO3AM-NI as a Hypoxia-Sensitive PET Probe” (Pharmaceuticals, 2022).
Like-named read-outs stand apart in the source and are kept apart here. One block for each molecule: values may come before it.

Experiments:
[1] = 25 °C, cited from earlier work
[2] = Stability constant of Sc(III) complex by 1H and 45Sc NMR batch samples and pH-potentiometric titration; pSc calculation; assay type: physicochemical; conditions: for pSc (-log[Sc(III)]free): [Sc(III)]tot = 1 × 10^−8 M, [L]tot = 1 × 10^−7 M, pH = 7.4
Description: The stability constant of the Sc(DO3AM-NI) complex was assessed by ^1H and ^45Sc-NMR studies using samples prepared in the 0.055–0.195 M acid concentration range. […] Absence of protonation and the presence of a ternary hydroxydo species formation with KScL•OH = 10.88(5) were detected at our experimental conditions. The NMR samples contained 3.32 mM ligand, ScCl3 and a constant ionic strength of 0.15 M NaCl. The samples were thermostated at 37 °C, and their ^1H- and ^45Sc-NMR spectra were recorded after 60 days. In order to ensure that the equilibrium in the samples was attained, the ^1H and ^45Sc-NMR measurements were repeated again 90 days later. The spectra were practically identical with the spectra recorded at 60 days (Figures S4 and S5). As expected, the thermodynamic stability constant of the Sc(DO3AM-NI) complex (log KScL = 22.36(4)) was considerably lower than those of Sc(III) complexes formed with DOTA, DTPA or AAZTA ligands (Table 1). A moderate decrease in terms of thermodynamic stability constants was already observed for the complexes of DO3A-monamides formed with Gd(III) ions in comparison to the stability of parent Gd(DOTA)^− chelate. Despite the lower stability constant of the complex, the Sc(III) ion was complexed completely around pH = 2.0 (in a millimolar concentration range, see Figure 2). However, it might be misleading to directly compare the stability constants of the complexes formed by ligands of different basicity (as it depends on the basicity of the ligand); therefore, we calculated and compared the pSc values (which could be treated as conditional constants) for the complexes shown in Table 1 by taking the protonation constants of ligands, the stability constants of the complex species present in solution and the hydrolysis of the Sc(III) ion (according to Ref. [23]: log βSc(OH) = −4.3, log βSc(OH)2 = −9.7, log βSc(OH)3 = −16.1, log βSc(OH)4 = −26.0 and log βSc2(OH)4 = −6.0) into account.
(§1) The equilibrium measurements were performed at constant ionic strength maintained by 0.15 M NaCl at 37 °C. For determining the protonation constants of DO3AM-NI, two parallel pH-potentiometric titrations were performed with 0.1611 M NaOH in a 5.00 cm^3 sample containing the ligand at the concentration of 2.76 mM. The stability constant of Sc(DO3AM-NI) was assessed by ^1H and ^45Sc NMR in 0.7 mL “batch” samples containing the metal and the ligand at 3.32 mM and different concentrations of strong acid (0.05–0.20 M) aged 90 days (see below). The formation of protonated and ternary hydroxydo complex species was probed by pH-potentiometric titration by titrating the preformed complex (at a concentration of 1.95 mM) with standardized NaOH solution. For the calculation of the logKMH-1L value, the VNaOH–pH data used were obtained in the pH range 1.68–11.85. The pH-potentiometric titrations were carried out with a Metrohm 785 DMP Titrino titration workstation with the use of a Metrohm-6.0233.100-combined electrode calibrated via a two-point calibration routine using KH-phthalate (pH = 4.005) and borax (pH = 9.177) buffers. The titrated samples were stirred with a magnetic stirrer, and N2 gas was bubbled through the solutions to avoid the effect of CO2. For the calculation of [H^+] from the measured pH values, the method proposed by Irving et al. was applied. For this, a 0.01M HCl solution was titrated with the standardized NaOH solution in the presence of 0.15 M NaCl ionic strength at 37 °C. The differences between the measured (pHread) and calculated pH (-log[H^+]) values were used to obtain the equilibrium H^+ concentration from the pHmeas values during the titrations. […] For the calculation of the equilibrium constants, the PSEQUAD program was used.
^1H- and ^45Sc-NMR measurements (400 MHz and 97 MHz, respectively) were performed with a Bruker DRX 400 (9.4 T) spectrometer equipped with a Bruker VT-1000 thermocontroller and a BB inverse z-gradient probe (5 mm). […]

[3] = 25 °C, cited from earlier work; remark: listed apart in the source
[4] = pH-potentiometric determination of ligand protonation constants; assay type: physicochemical; conditions: 0.15 M NaCl, 37 °C
Description: Equilibrium measurements were commenced by determining the protonation constants of the ligand, measured at 37 °C (I = 0.15 M NaCl) owing to the relevance of the chelate under in vivo conditions. The protonation constants obtained by fitting the pH-potentiometric data for the ligand DO3AM-NI are shown in Table 1 along with the literature data published for DOTA and certain DO3A-monoamides (DO3A-mono-N-buthylamide as well as that of a hypoxia-sensitive MRI probe reported by some of us a couple of years ago). Five protonation steps were observed by performing the titration in the pH range of 1.72–11.85 for the DO3AM-NI monoamide type ligand, two of which (characterized by high constants) describe the protonation of nitrogen atoms in the macrocycle (positioned trans- to each other), while the remaining log Ki^H values (much lower) likely reflect the protonation of the carboxylates. The replacement of an acetate group of DOTA by an amide moiety results in a decrease in the protonation sites of the ligand, and as a consequence the overall basicity of the ligand (expressed as the sum of the protonation constants, log β015) was as expected, predicted from the data published in literature. What is more, the formation of a weak Na^+ complex (originating from the ionic strength) competing with the first protonation process may be responsible of the lower value of the first protonation constant.
as §1

[5] = constants at 0.1 M Me4NCl, 25 °C from Ref. 19

pSc (-log[Sc(III)]free) ([2]; constants at 0.1 M KCl, 25 °C from Ref. 20): 24.72
SMILES: CC1(N(CC(=O)O)CC(=O)O)CN(CC(=O)O)CCN(CC(=O)O)C1 [AAZTA]
log K1^H ([1]; 0.1 M KCl): 11.26
log K2^H ([1]; 0.1 M KCl): 6.62
log K3^H ([1]; 0.1 M KCl): 3.86
log K4^H ([1]; 0.1 M KCl): 2.45
log K5^H ([1]; 0.1 M KCl): 1.88
log K6^H ([1]; 0.1 M KCl): 1.46
log KScL•H (protonation constant of Sc(III) complex) ([3]; 0.1 M KCl): 0.86
log KSc•L (stability constant of Sc(III) complex) ([3]; 0.1 M KCl): 27.69

log KScL•OH (ternary hydroxydo species) ([2]; 0.15 M NaCl, 37 °C): 10.88(5)
log KSc•L (stability constant of Sc(III) complex) ([2]; 0.15 M NaCl, 37 °C): 22.36(4)
pSc (-log[Sc(III)]free) ([2]; constants at 0.15 M NaCl, 37 °C): 20.74
log K1^H [4]: 8.79(1)
log K2^H [4]: 8.59(1)
log K3^H [4]: 4.23(1)
log K4^H [4]: 2.49(1)
log K5^H [4]: 1.00(4)
log β015 (sum of the protonation constants) [4]: 25.10
SMILES: O=C(O)CN1CCN(CC(=O)O)CCN(CC(=O)NCCn2ccnc2[N+](=O)[O-])CCN(CC(=O)O)CC1 [DO3AM-NI]

SMILES: CCCCNC(=O)CN1CCN(CC(=O)O)CCN(CC(=O)O)CCN(CC(=O)O)CC1 [DO3AM^nBu, DO3A-mono-N-buthylamide]
log K1^H ([1]; 1.0 M KCl): 9.78
log K2^H ([1]; 1.0 M KCl): 9.05
log K3^H ([1]; 1.0 M KCl): 4.53
log K4^H ([1]; 1.0 M KCl): 3.17
log K5^H ([1]; 1.0 M KCl): 2.19
log β015 (sum of the protonation constants) ([1]; 1.0 M KCl): 28.72

pSc (-log[Sc(III)]free) [2, 5]: 23.92
SMILES: O=C(O)CN1CCN(CC(=O)O)CCN(CC(=O)O)CCN(CC(=O)O)CC1 [DOTA, 1,4,7,10-tetraazacyclododecane-1,4,7,10-tetraacetic acid]
log K1^H ([1]; 0.1 M Me4NCl): 12.90
log K2^H ([1]; 0.1 M Me4NCl): 9.72
log K3^H ([1]; 0.1 M Me4NCl): 4.62
log K4^H ([1]; 0.1 M Me4NCl): 4.15
log K5^H ([1]; 0.1 M Me4NCl): 2.29
log K6^H ([1]; 0.1 M Me4NCl): 1.34
log β015 (sum of the protonation constants) ([1]; 0.1 M Me4NCl): 33.68
log KScL•H (protonation constant of Sc(III) complex) ([3]; 0.1 M Me4NCl): 1.00
log KSc•L (stability constant of Sc(III) complex) ([3]; 0.1 M Me4NCl): 30.79

pSc (-log[Sc(III)]free) [2, 5]: 23.88
SMILES: O=C(O)CN(CCN(CC(=O)O)CC(=O)O)CCN(CC(=O)O)CC(=O)O [DTPA]
log K1^H ([1]; 0.1 M Me4NCl): 10.65
log K2^H ([1]; 0.1 M Me4NCl): 8.66
log K3^H ([1]; 0.1 M Me4NCl): 4.36
log K4^H ([1]; 0.1 M Me4NCl): 2.82
log K5^H ([1]; 0.1 M Me4NCl): 2.03
log K6^H ([1]; 0.1 M Me4NCl): 1.31
log K7^H ([1]; 0.1 M Me4NCl): 1.30
log β015 (sum of the protonation constants) ([1]; 0.1 M Me4NCl): 28.52
log KScL•H (protonation constant of Sc(III) complex) ([3]; 0.1 M Me4NCl): 1.36
log KScL•OH (ternary hydroxydo species) ([3]; 0.1 M Me4NCl): 12.44
log KSc•L (stability constant of Sc(III) complex) ([3]; 0.1 M Me4NCl): 27.43
